The values below come from PubChem BioAssay AID330 (DTP/NCI, 2004).

The assay has as its system P388 leukemia ip, CD2F1 mice, survival T/C. As to the kind of experiment: NCI In Vivo Anticancer Drug Screen. Data for tumor model P388 Leukemia (intraperitoneal) in CD2F1 (CDF1) mice. The settings on record: endpoint: median survival time, higher = longer survival. In short, it runs like this:
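Mice carrying the transplanted tumor received test compound or vehicle. Survival was recorded in each group, and the value is the treated-group measurement divided by that of the vehicle-treated control group.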

[1] abbreviates: dose: 60.0 mg/kg/injection, schedule: Q01DX005 (ip), vehicle: saline with Tween-80.
Where [2] appears, read: dose: 120.0 mg/kg/injection, schedule: Q01DX005 (ip), vehicle: saline with Tween-80.
Where [3] appears, read: dose: 240.0 mg/kg/injection, schedule: Q01DX005 (ip), vehicle: saline with Tween-80.
Where [4] appears, read: dose: 50.0 mg/kg/injection, schedule: Q01DX005 (ip), vehicle: saline with Tween-80.
Setting [5] is: dose: 200.0 mg/kg/injection, schedule: Q01DX005 (ip), vehicle: saline with Tween-80.
Where [6] appears, read: dose: 200.0 mg/kg/injection, schedule: Q04DX002 (ip), vehicle: saline with Tween-80.
Setting [7] is: dose: 400.0 mg/kg/injection, schedule: Q04DX002 (ip), vehicle: saline with Tween-80.
The mark [8] stands for this setting: dose: 25.0 mg/kg/injection, schedule: Q04DX002 (ip), vehicle: saline with Tween-80.
Setting [9] is: dose: 50.0 mg/kg/injection, schedule: Q04DX002 (ip), vehicle: saline with Tween-80.

Each structure is given as a SMILES string. “And” between values parts separate entries of the source, which are not always exact repeats. Identical values can stand only once. Toxic doses and inconclusive results are not listed.

Regarding `Cc1ccc(NC(=O)CCCC(=O)C(C#N)c2c(Cl)cccc2Cl)cc1C` (configuration not stated), the T/C is, setting by setting: under setting [1], 114 % of control; under setting [2], 108 % of control; under setting [3], 103 % of control.
With `CC1=C(C/C=C(\C)CCCC(C)CCCC(C)CCCC(C)C)C(=O)c2ccccc2C1=O` (configuration not stated), the T/C reads like this: (dose: 12.5 mg/kg/injection, schedule: Q01DX009 (ip), vehicle: olive oil, sesame oil, peanut oil) 102 % of control; (dose: 25.0 mg/kg/injection, schedule: Q01DX009 (ip), vehicle: olive oil, sesame oil, peanut oil) 105 % of control; (dose: 50.0 mg/kg/injection, schedule: Q01DX001 (ip), vehicle: olive oil, sesame oil, peanut oil) 92 % of control; (dose: 50.0 mg/kg/injection, schedule: Q01DX009 (ip), vehicle: olive oil, sesame oil, peanut oil) 101 % of control; (dose: 100.0 mg/kg/injection, schedule: Q01DX001 (ip), vehicle: olive oil, sesame oil, peanut oil) 99 % of control; (dose: 100.0 mg/kg/injection, schedule: Q01DX009 (ip), vehicle: olive oil, sesame oil, peanut oil) 100 % of control. Also, the T/C runs as follows: (dose: 200.0 mg/kg/injection, schedule: Q01DX001 (ip), vehicle: olive oil, sesame oil, peanut oil) 99 % of control; (dose: 200.0 mg/kg/injection, schedule: Q01DX009 (ip), vehicle: olive oil, sesame oil, peanut oil) 101 % of control.
Take `CN(C)C1C(O)C2Oc3c(cc(O)c4c3C(=O)c3cc5c(c(O)c3C4=O)C(OCC3COC(C)(C)O3)CC(C)(O)C5)C(C)(O2)C1O` (configuration not stated): the T/C runs as follows: (dose: 2.0 mg/kg/injection, schedule: Q01DX009 (ip), vehicle: other) 105 % of control; (dose: 4.0 mg/kg/injection, schedule: Q01DX009 (ip), vehicle: other) 117 % of control; (dose: 8.0 mg/kg/injection, schedule: Q01DX009 (ip), vehicle: other) 123 % of control; (dose: 16.0 mg/kg/injection, schedule: Q01DX009 (ip), vehicle: other) 123 % of control.
On to `COc1ccc(O)c(C(c2cc(OC)ccc2O)c2cc(OC)ccc2O)c1`, for which the T/C runs as follows: (dose: 50.0 mg/kg/injection, schedule: Q01DX009 (ip), vehicle: saline with Tween-80) 115 % of control; (dose: 100.0 mg/kg/injection, schedule: Q01DX009 (ip), vehicle: saline with Tween-80) 115 % of control; (dose: 200.0 mg/kg/injection, schedule: Q01DX009 (ip), vehicle: saline with Tween-80) 115 % of control.
As to `Cc1c(COC(=O)NC(C)C)c(COC(=O)NC(C)C)c2n1CS(=O)C2` (configuration not stated), the T/C by setting is: (dose: 12.5 mg/kg/injection, schedule: Q01DX005 (ip), vehicle: saline with Tween-80) 104 % of control; (dose: 25.0 mg/kg/injection, schedule: Q01DX005 (ip), vehicle: saline with Tween-80) 111 % of control; under setting [4], 118 % of control; under setting [5], 176 % of control.
For the compound `N#CC(=NCCO)C1=C(O)c2ccccc2C1=O`, the T/C runs as follows: under setting [1], 107 % of control; under setting [2], 97 % of control; under setting [3], 95 % of control.
Consider `O=C1c2ccncc2C(=O)c2c(O)ccc(O)c21`, for which the T/C is 102 % of control (dose: 12.5 mg/kg/injection, schedule: Q01DX009 (ip), vehicle: distilled water + Tween-80); 100 % of control (dose: 25.0 mg/kg/injection, schedule: Q01DX009 (ip), vehicle: distilled water + Tween-80); 98 % of control (dose: 50.0 mg/kg/injection, schedule: Q01DX009 (ip), vehicle: distilled water + Tween-80); 109 % of control (dose: 100.0 mg/kg/injection, schedule: Q01DX009 (ip), vehicle: distilled water + Tween-80).
For `[Cl][Pt]([Cl])([Cl])[Cl]`, the T/C is, setting by setting: (dose: 12.5 mg/kg/injection, schedule: Q01DX009 (ip), vehicle: saline) 123 % of control; (dose: 25.0 mg/kg/injection, schedule: Q01DX009 (ip), vehicle: saline) 111 % of control.
Turning to `CC(=O)O[C@H]1[C@H]2O[C@]23[C@@H]2CC[C@]4(O)C[C@@H](O)CC[C@]4(C)[C@H]2CC[C@]3(C)[C@H]1c1ccc(=O)oc1`, the T/C was 114 % of control (dose: 12.5 mg/kg/injection, schedule: Q01DX009 (ip), vehicle: Klucel (hydroxypropylcellulose) (HPC)); 105 % of control (dose: 25.0 mg/kg/injection, schedule: Q01DX009 (ip), vehicle: Klucel (hydroxypropylcellulose) (HPC)); 105 % of control (dose: 50.0 mg/kg/injection, schedule: Q01DX009 (ip), vehicle: Klucel (hydroxypropylcellulose) (HPC)); 120 % of control (dose: 100.0 mg/kg/injection, schedule: Q01DX009 (ip), vehicle: Klucel (hydroxypropylcellulose) (HPC)).
As for `CC(Cl)C(Cl)(Cl)/C=C\[N+](=O)[O-]` (configuration not stated), the T/C (dose: 50.0 mg/kg/injection, schedule: Q01DX009 (ip), vehicle: saline) is 103 % of control; the T/C (dose: 100.0 mg/kg/injection, schedule: Q01DX009 (ip), vehicle: saline) was 102 % of control; the T/C (dose: 200.0 mg/kg/injection, schedule: Q01DX009 (ip), vehicle: saline) was 98 % of control.
As to `CCC(c1ccc(OC)cc1)C(NCC(=O)NNC(=O)CNC(c1ccc(OC)cc1)C(CC)c1ccc(OC)cc1)c1ccc(OC)cc1` (configuration not stated), the T/C runs as follows: under setting [6], 86 % of control; under setting [7], 92 % of control.
In the case of `COc1ccc2[s+]c(-c3ccccc3)ccc2c1`, the T/C is 100 % of control (dose: 60.0 mg/kg/injection, schedule: Q01DX005 (ip), vehicle: Klucel (hydroxypropylcellulose) (HPC)); 108 % of control (dose: 120.0 mg/kg/injection, schedule: Q01DX005 (ip), vehicle: Klucel (hydroxypropylcellulose) (HPC)); 111 % of control (dose: 240.0 mg/kg/injection, schedule: Q01DX005 (ip), vehicle: Klucel (hydroxypropylcellulose) (HPC)).
On to `COC(=O)c1nc(N)nc(C(=O)OC)c1C(=O)C(C)(C)C`, for which the T/C was 96 % of control under setting [1] and 96 % of control under setting [2].
On to `NC(CSC(c1ccccc1)(c1ccccc1)c1ccc(CO)cc1)C(=O)O` (configuration not stated), for which, for the setting “dose: 12.5 mg/kg/injection, schedule: Q01DX009 (ip), vehicle: saline with Tween-80”, the T/C is 118 % of control.
Consider `CNC(=O)n1c(N)nc(-c2ccccc2)c1-c1ccccc1`, for which the T/C by setting is: (dose: 12.5 mg/kg/injection, schedule: Q04DX002 (ip), vehicle: saline with Tween-80) 115 % of control; under setting [8], 115 % of control; under setting [9], 117 % of control.
Consider `CCOC(=O)c1c(C)c(C(=O)OCC)n2cnc(C(=O)OC)cc12`, for which the T/C is, setting by setting: under setting [8], 97 % of control; under setting [9], 106 % of control and 94 % of control; (dose: 100.0 mg/kg/injection, schedule: Q04DX002 (ip), vehicle: saline with Tween-80) 103 % of control and 122 % of control and 97 % of control; under setting [6], 104 % of control (2×) and 97 % of control; under setting [7], 113 % of control.
As to `CC(=O)N(C)OS(C)(=O)=O`, the T/C reads like this: (dose: 50.0 mg/kg/injection, schedule: Q01DX001 (ip), vehicle: saline with Tween-80) 108 % of control; under setting [4], 101 % of control; (dose: 100.0 mg/kg/injection, schedule: Q01DX001 (ip), vehicle: saline with Tween-80) 100 % of control; (dose: 100.0 mg/kg/injection, schedule: Q01DX005 (ip), vehicle: saline with Tween-80) 103 % of control; (dose: 200.0 mg/kg/injection, schedule: Q01DX001 (ip), vehicle: saline with Tween-80) 104 % of control; under setting [5], 106 % of control. Besides, the T/C (dose: 400.0 mg/kg/injection, schedule: Q01DX001 (ip), vehicle: saline with Tween-80) was 104 % of control.
Regarding `CCN(CC)CCC[Si]1(C)c2ccccc2CCc2ccccc21`, the T/C is 111 % of control (dose: 25.0 mg/kg/injection, schedule: Q04DX003 (ip), vehicle: saline); 102 % of control (dose: 50.0 mg/kg/injection, schedule: Q04DX003 (ip), vehicle: saline); 92 % of control (dose: 100.0 mg/kg/injection, schedule: Q04DX003 (ip), vehicle: saline).
Turning to `COc1ccc(-n2c(N)c(C#N)c3c(c2=S)CCCC3)cc1`, the T/C reads like this: (dose: 50.0 mg/kg/injection, schedule: Q01DX005 (ip), vehicle: Klucel + Tween-80) 100 % of control; (dose: 100.0 mg/kg/injection, schedule: Q01DX005 (ip), vehicle: Klucel + Tween-80) 104 % of control; (dose: 200.0 mg/kg/injection, schedule: Q01DX005 (ip), vehicle: Klucel + Tween-80) 95 % of control.
